Results from US8809232B2, “Herbicidal compositions comprising 4-amino-3-chloro-5-fluoro-6-(4-chloro-2-fluoro-3-methoxyphenyl) pyridine-2-carboxylic acid or a derivative thereof and halosulfuron, pyrazosulfuron and esprocarb” (Dow Agrosciences LLC, priority 2012, dated 2014).

Assays:
DIGSA = experiment: Post-emergence foliar-applied herbicidal mixtures, greenhouse, direct seeded rice weeds; type: in vivo, Digitaria sanguinalis (L.) Scop.
Description: (§1) Seeds or nutlets of the desired test plant species were planted in a soil matrix prepared by mixing a loam or sandy loam soil (e.g., 28.6 percent silt, 18.8 percent clay, and 52.6 percent sand, with a pH of about 5.8 and an organic matter content of about 1.8 percent) and calcareous grit in an 80 to 20 ratio. The soil matrix was contained in plastic pots with a volume of 1 quart and a surface area of 83.6 square centimeters (cm^2). When required to ensure good germination and healthy plants, a fungicide treatment and/or other chemical or physical treatment was applied. The plants were grown for 8-22 days in a greenhouse with an approximate 14 hr photoperiod which was maintained at about 29° C. during the day and 26° C. during the night. Nutrients (Peters Excel® 15-5-15 5-Ca 2-Mg and iron chelate) were applied in the irrigation solution as needed and water was added on a regular basis. Supplemental lighting was provided with overhead metal halide 1000-Watt lamps as necessary. The plants were employed for testing when they reached the first through fourth true leaf stage.
(§2) Treatments consisted of the acid or esters of 4-amino-3-chloro-5-fluoro-6-(4-chloro-2-fluoro-3-methoxy-phenyl)pyridine-2-carboxylic acid (Compound A), each formulated as an SC (suspension concentrate), and various herbicidal components alone and in combination. Forms of compound A were applied on an acid equivalent basis.
(§3) Other herbicidal components were applied on an active ingredient basis and included the acetolactate synthase (ALS)-inhibiting herbicides halosulfuron-methyl formulated as Permit® 75 WDG, pyrazosulfuron-ethyl formulated as Agreen® WG or Sirius® G, and the VLCFA inhibiting herbicide esprocarb (technical grade material).
(§4) Treatment requirements were calculated based upon the rates being tested, the concentration of active ingredient or acid equivalent in the formulation, and a 12 mL application volume at a rate of 187 L/ha.
(§5) For treatments comprised of formulated compounds, measured amounts of compounds were placed individually in 25 mL glass vials and diluted in a volume of 1.25% (v/v) Agri-Dex® crop oil concentrated to obtain 12× stock solutions. […] Application solutions were prepared by adding an appropriate amount of each stock solution (e.g., 1 mL) and diluted to the appropriate final concentrations with the addition of 10 mL of an aqueous mixture of 1.25% (v/v) crop oil concentrate so that the final spray solutions contained 1.25+/−0.05% (v/v) crop oil concentrate.
(§6) For treatments comprised of technical compounds, weighed amounts can be placed individually in 25 mL glass vials and dissolved in a volume of 97:3 v/v acetone/DMSO to obtain 12× stock solutions. […] Application solutions can be prepared by adding an appropriate amount of each stock solution (e.g., 1 mL) and diluted to the appropriate final concentrations with the addition of 10 mL of an aqueous mixture of 1.5% (v/v) crop oil concentrate so that the final spray solutions contain 1.25% (v/v) crop oil concentrate. When technical materials are used, the concentrated stock solutions can be added to the spray solutions so that the final acetone and DMSO concentrations of the application solutions are 16.2% and 0.5%, respectively.
(§7) For treatments comprised of formulated and technical compounds, weighed amounts of the technical materials were placed individually in 25 mL glass vials and dissolved in a volume of 97:3 v/v acetone/DMSO to obtain 12× stock solutions, and measured amounts of the formulated compounds were placed individually in 25 mL glass vials and diluted in a volume of 1.5% (v/v) crop oil concentrate or water to obtain 12× stock solutions. […] Application solutions were prepared by adding an appropriate amount of each stock solution (e.g., 1 mL) and diluted to the appropriate final concentrations with the addition of an appropriate amount of an aqueous mixture of 1.5% (v/v) crop oil concentrate so that the final spray solutions contained 1.25% (v/v) crop oil concentrate. […]

SCPMA = experiment: In-water applied herbicidal mixtures, greenhouse, transplanted paddy rice weeds; type: in vivo
Procedure: (§8) Weed seeds or nutlets of the desired test plant species were planted in puddled soil (mud) prepared by mixing a shredded, non-sterilized mineral soil (50.5 percent silt, 25.5 percent clay, and 24 percent sand, with a pH of about 7.6 and an organic matter content of about 2.9 percent) and water at a 1:1 volumetric ratio. The prepared mud was dispensed in 365 mL aliquots into 16-ounce (oz.) non-perforated plastic pots with a surface area of 86.59 square centimeters (cm^2) leaving a headspace of 3 centimeters (cm) in each pot Mud was allowed to dry overnight prior to planting or transplanting. Rice seeds were planted in Sun Gro MetroMix® 306 planting mixture, which typically has a pH of 6.0 to 6.8 and an organic matter content of about 30 percent, in plastic plug trays. Seedlings at the second or third leaf stage of growth were transplanted into 840 mL of mud contained in 32-oz. non-perforated plastic pots with a surface area of 86.59 cm^2 4 days prior to herbicide application. The paddy was created by filling the headspace of the pots with 2.5 to 3 cm of water. When required to ensure good germination and healthy plants, a fungicide treatment and/or other chemical or physical treatment was applied. The plants were grown for 4-22 days in a greenhouse with an approximate 14 hr photoperiod which was maintained at about 29′C during the day and 26° C. during the night. Nutrients were added as Osmocote® (19:6:12, N:P:K^+ minor nutrients) at 2 g per 16-oz. pot and 4 g per 32-oz. pot. Water was added on a regular basis to maintain the paddy flood, and supplemental lighting was provided with overhead metal halide 1000-Watt lamps as necessary. The plants were employed for testing when they reached the first through fourth true leaf stage.
(§9) Treatments consisted of the acid or esters of 4-amino-3-chloro-5-fluoro-6-(4-chloro-2-fluoro-3-methoxy-phenyl)pyridine-2-carboxylic acid (compound A) each formulated as an SC (suspension concentrate) and various herbicidal components alone and in combination. Forms of compound A were applied on an acid equivalent basis.
(§10) Other herbicidal components were applied on an active ingredient basis and included acetolactate synthase (ALS)-inhibiting herbicides formulated as Permit® 75 WDG, pyrazosulfuron-ethyl formulated as Agreen® WG or Sirius® G, and VLCFA inhibiting herbicide esprocarb (technical grade material).
(§11) Treatment requirements for each compound or herbicidal component were calculated based upon the rates being tested, the concentration of active ingredient or acid equivalent in the formulation, an application volume of 2 mL per component per pot, and an application area of 86.59 cm^2 per pot.
(§12) For formulated compounds, a measured amount was placed in an individual 100 or 200 mL glass vial and was dissolved in a volume of 1.25% (v/v) Agri-Dex® crop oil concentrate to obtain application solutions.
(§13) For technical grade compounds, a weighed amount was placed in an individual 100 to 200 mL glass vial and was dissolved in a volume of acetone to obtain concentrated stock solutions. […] The concentrated stock solutions obtained were diluted with an equivalent volume of an aqueous mixture containing 2.5% (v/v) crop oil concentrate so that the final application solutions contained 1.25% (v/v) crop oil concentrate.
(§14) Applications were made by injecting with a pipetter appropriate amounts of the application solutions, individually and sequentially, into the aqueous layer of the paddy. Control plants were treated in the same manner with the solvent blank. Applications were made so that all treated plant material received the same concentrations of acetone and crop oil concentrate.
(§15) The treated plants and control plants were placed in a greenhouse as described above and water was added as needed to maintain a paddy flood. […]

ECHOR = experiment: as above; type: in vivo, Echinochloa oryzoides (Ard.) Fritsch
Procedure: as §8, §9, §10, §11, §12, §13, §14, §15

ECHCG = experiment: as above; type: in vivo, Echinochloa crus-galli (L.) Beauv.
Procedure: as §8, with “Water was added on a regular basis to maintain the paddy flood, and supplemental lighting was provided with overhead metal halide 1000-Watt lamps as necessary. The plants were employed for testing when they reached the first through fourth true leaf stage.” left out
as §11
(§16) For formulated compounds, a measured amount was placed in an individual 100 or 200 mL glass vial and was dissolved in a volume of 1.25% (v/v) Agri-Dex® crop oil concentrate to obtain application solutions. […]

BRAPP = experiment: Post-emergence foliar-applied herbicidal mixtures, greenhouse, direct seeded rice weeds; type: in vivo; details: 4.38 g ae/ha
Description: as §1, §2, §3, §4, §5, §6, §7

FIMMI = experiment: In-water applied herbicidal mixtures, greenhouse, transplanted paddy rice weeds; type: in vivo, Fimbristylis miliacea (L.) Vahl
Procedure: as §8, §9, §10, §11, §12, §13
Applications were made by injecting with a pipetter appropriate amounts of the application solutions, individually and sequentially, into the aqueous layer of the paddy. […]

SCPJU = experiment: as above; type: in vivo, Schoenoplectus juncoides (Roxb.) Palla
Procedure: as §8
Treatments consisted of the acid or esters of 4-amino-3-chloro-5-fluoro-6-(4-chloro-2-fluoro-3-methoxy-phenyl)pyridine-2-carboxylic acid (compound A) each formulated as an SC (suspension concentrate) and various herbicidal components alone and in combination. Forms of compound A were applied on an acid equivalent basis. […]
as §11, §16

ECHCO = experiment: Post-emergence foliar-applied herbicidal mixtures, greenhouse, direct seeded rice weeds; type: in vivo, Echinochloa colona (L.) Link
Description: as §1, with “stage. […]” for “stage.”
as §4
For treatments comprised of formulated compounds, measured amounts of compounds were placed individually in 25 mL glass vials and diluted in a volume of 1.25% (v/v) Agri-Dex® crop oil concentrated to obtain 12× stock solutions. […]
For treatments comprised of formulated and technical compounds, weighed amounts of the technical materials were placed individually in 25 mL glass vials and dissolved in a volume of 97:3 v/v acetone/DMSO to obtain 12× stock solutions, and measured amounts of the formulated compounds were placed individually in 25 mL glass vials and diluted in a volume of 1.5% (v/v) crop oil concentrate or water to obtain 12× stock solutions. […]

CYPRO = experiment: In-water applied herbicidal mixtures, greenhouse, transplanted paddy rice weeds; type: in vivo, Cyperus rotundus L.
Procedure: as §8, §9, §10, §11, §12, §13, §14, §15

LEFCH = experiment: Post-emergence foliar-applied herbicidal mixtures, greenhouse, direct seeded rice weeds; type: in vivo, Leptochloa chinensis (L.) Nees; details: 35 g ae/ha
Description: as §1, §2, §3, §4, §5, §6, §7

COc1c(Cl)ccc(-c2nc(C(=O)O)c(Cl)c(N)c2F)c1F [Compound A Acid, 4-amino-3-chloro-5-fluoro-6-(4-chloro-2-fluoro-3-methoxy-phenyl)pyridine-2-carboxylic acid]
Visual Weed Control (%) - 20 DAA DIGSA Obs (DIGSA; 21.2 g ae/ha): 10%
Visual Weed Control (%) - 20 DAA DIGSA Obs (DIGSA; 42.4 g ae/ha): 25%
Visual Weed Control (%) - 22 DAA SCPMA Obs (SCPMA; 8.75 g ae/ha): 0%
Visual Weed Control (%) - 22 DAA SCPMA Obs (SCPMA; 17.5 g ae/ha): 0%
Visual Weed Control (%) - 22 DAA SCPMA Obs (SCPMA; 35 g ae/ha): 0%
Visual Weed Control (%) - 20 DAA SCPMA Obs (SCPMA; 42.4 g ae/ha): 0%
Visual Weed Control (%) - 20 DAA SCPMA Obs (SCPMA; 84.8 g ae/ha): 0%
Visual Weed Control (%) - 22 DAA ECHOR Obs (ECHOR; 8.75 g ae/ha): 0%
Visual Weed Control (%) - 22 DAA ECHOR Obs (ECHOR; 17.5 g ae/ha): 0%
Visual Weed Control (%) - 22 DAA ECHOR Obs (ECHOR; 35 g ae/ha): 20%
Visual Weed Control (%) - 20 DAA ECHOR Obs (ECHOR; 42.4 g ae/ha): 18%
Visual Weed Control (%) - 20 DAA ECHOR Obs (ECHOR; 84.8 g ae/ha): 33%
Visual Weed Control (%) - 21 DAA ECHCG Obs (ECHCG; 8.75 g ae/ha): 0%
Visual Weed Control (%) - 21 DAA ECHCG Obs (ECHCG; 17.5 g ae/ha): 30%
Visual Weed Control (%) - 20 DAA BRAPP Obs (BRAPP): 50%
Visual Weed Control (%) - 22 DAA BRAPP Obs (BRAPP): 45%
Visual Weed Control (%) - 21 DAA FIMMI Obs (FIMMI; 8.75 g ae/ha): 0%
Visual Weed Control (%) - 21 DAA FIMMI Obs (FIMMI; 17.5 g ae/ha): 95%
Visual Weed Control (%) - 21 DAA SCPJU Obs (SCPJU; 8.75 g ae/ha): 40%
Visual Weed Control (%) - 21 DAA SCPJU Obs (SCPJU; 17.5 g ae/ha): 60%
Visual Weed Control (%) - 22 DAA ECHCO Obs (ECHCO; 4.38 g ae/ha): 65%
Visual Weed Control (%) - 22 DAA ECHCO Obs (ECHCO; 8.75 g ae/ha): 80%
Visual Weed Control (%) - 21 DAA CYPRO Obs (CYPRO; 8.75 g ae/ha): 30%
Visual Weed Control (%) - 21 DAA CYPRO Obs (CYPRO; 17.5 g ae/ha): 50%
Visual Weed Control (%) - 21 DAA CYPRO Obs (CYPRO; 35 g ae/ha): 65%

CCCCOC(=O)c1nc(-c2ccc(Cl)c(OC)c2F)c(F)c(N)c1Cl [Compound A n-Butyl Ester]
Visual Weed Control (%) - 20 DAA LEFCH Obs (LEFCH): 48%
Visual Weed Control (%) - 20 DAA DIGSA Obs (DIGSA; 17.5 g ae/ha): 13%
Visual Weed Control (%) - 20 DAA SCPMA Obs (SCPMA; 35 g ae/ha): 0%
Visual Weed Control (%) - 20 DAA SCPMA Obs (SCPMA; 70 g ae/ha): 0%
Visual Weed Control (%) - 20 DAA ECHOR Obs (ECHOR; 35 g ae/ha): 35%
Visual Weed Control (%) - 20 DAA ECHOR Obs (ECHOR; 70 g ae/ha): 40%
